Test results: the NIST ThermoML archive (doi:10.1016/j.jct.2007.01.009)

Test: xn = mol fraction of the nth substance listed
Settings: 101 kPa, Liquid, Pycnometric method

CCCCC(O)CO (stereo not drawn) [1,2-hexanediol] + O
mass density [kg/m3]
Settings	283.15 K	288.15 K	293.15 K	298.15 K	303.15 K	308.15 K
x1 = 0.0009	999.77	999.33	998.26	997.06	995.65	993.92
x1 = 0.0018	999.85	999.35	998.28	997.06	995.66	993.92
x1 = 0.0036	1000.05	999.43	998.39	997.13	995.76	993.98
x1 = 0.0055	1000.31	999.57	998.54	997.24	995.78	994.13
x1 = 0.0077	1000.69	999.81	998.75	997.43	995.64	994.227
x1 = 0.009	1000.93	999.97	998.86	997.49	995.53	994.278
x1 = 0.0106	1001.22	1000.16	998.97	997.52	995.37	994.276
x1 = 0.0124	1001.49	1000.33	999.03	997.47	995.17	994.141
x1 = 0.0143	1001.65	1000.41	999.01	997.32	994.93	993.817
x1 = 0.016	1001.69	1000.38	998.91	997.13	994.7	993.395
x1 = 0.0178	1001.64	1000.25	998.73	996.87	994.45	992.869
x1 = 0.0351	999.52	997.75	995.76	993.77	991.54	988.24
x1 = 0.0672	995.27	993.06	990.72	988.37	985.8	981.847
x1 = 0.0968	991.84	989.37	986.7	983.93	981.37	977.569
x1 = 0.1119	990.47	987.91	985.24	982.11	979.56	975.746

CC(O)CCCCO (stereo not drawn) [1,5-hexanediol] + O
mass density [kg/m3]
Settings	283.15 K	288.15 K	293.15 K	298.15 K	303.15 K	308.15 K
x1 = 0.001	999.62	999.01	998.08	996.9	995.49	993.87
x1 = 0.0021	999.54	998.92	997.97	996.78	995.34	993.69
x1 = 0.0037	999.45	998.83	997.87	996.64	995.17	993.47
x1 = 0.0053	999.39	998.77	997.8	996.54	995.05	993.32
x1 = 0.0071	999.38	998.74	997.74	996.46	994.97	993.19
x1 = 0.0089	999.41	998.73	997.7	996.4	994.91	993.09
x1 = 0.0111	999.49	998.75	997.68	996.36	994.86	992.99
x1 = 0.0145	999.68	998.84	997.7	996.34	994.79	992.85
x1 = 0.0194	1000.04	999.07	997.8	996.37	994.7	992.68
x1 = 0.0324	1001.21	999.91	998.22	996.47	994.45	992.23
x1 = 0.0507	1002.48	1000.63	998.55	996.31	994.04	991.47
x1 = 0.0738	1002.95	1000.72	998.24	995.66	993.05	990.3

OCCCCCCO [1,6-hexanediol] + O
mass density [kg/m3]
Settings	283.15 K	288.15 K	293.15 K	298.15 K	303.15 K	308.15 K
x1 = 0.0009	999.67	999.02	998.12	996.93	995.54	993.92
x1 = 0.0019	999.65	998.96	998.04	996.83	995.42	993.78
x1 = 0.0037	999.63	998.86	997.92	996.68	995.24	993.57
x1 = 0.0054	999.64	998.8	997.84	996.58	995.11	993.41
x1 = 0.0074	999.66	998.78	997.78	996.49	994.99	993.24
x1 = 0.009	999.68	998.78	997.76	996.43	994.89	993.11
x1 = 0.0107	999.71	998.8	997.72	996.38	994.79	992.99
x1 = 0.0125	999.76	998.83	997.7	996.32	994.69	992.87
x1 = 0.0145	999.83	998.88	997.68	996.26	994.59	992.74
x1 = 0.0159	999.88	998.92	997.67	996.23	994.52	992.65
x1 = 0.0177	999.96	998.98	997.66	996.18	994.43	992.54
x1 = 0.0349	1000.78	999.42	997.56	995.67	993.61	991.57
x1 = 0.0514	1001.11	999.3	997.34	995.07	992.8	990.58
x1 = 0.0694	1001.08	998.88	996.87	994.3	991.84	989.39
x1 = 0.0983	1000.63	997.95	995.62	992.81	990.14	987.3
x1 = 0.112	1000.09	997.54	994.84	992.04	989.26	986.33
